Measured values taken from ChEMBL document CHEMBL4004838, “Design and synthesis of novel phenyl -1, 4-beta-carboline-hybrid molecules as potential anticancer agents” (Eur J Med Chem, 2017).

How the values were obtained:
Assay type in all cases: functional
SK-MEL-28 = assay: Growth inhibition of human SK-MEL-28 cells assessed as cell growth at 10^-5 M incubated for 48 hrs by sulforhodamine B assay relative to control; conditions: SK-MEL-28, 48 h, read-out: Activity
Hs-578T = assay: Growth inhibition of human Hs 578T cells assessed as cell growth at 10^-5 M incubated for 48 hrs by sulforhodamine B assay relative to control; conditions: read-out: Activity
NCI-H322M = assay: Growth inhibition of human NCI-H322M cells assessed as cell growth at 10^-5 M incubated for 48 hrs by sulforhodamine B assay relative to control; conditions: read-out: Activity
SF-268 = assay: Growth inhibition of human SF268 cells assessed as cell growth at 10^-5 M incubated for 48 hrs by sulforhodamine B assay relative to control; conditions: SF-268, 48 h, read-out: Activity
OVCAR-3 = assay: Growth inhibition of human OVCAR3 cells assessed as cell growth at 10^-5 M incubated for 48 hrs by sulforhodamine B assay relative to control; conditions: OVCAR-3, 48 h, read-out: Activity
NCI/ADR-RES = assay: Growth inhibition of human NCI-ADR-RES cells assessed as cell growth at 10^-5 M incubated for 48 hrs by sulforhodamine B assay relative to control; conditions: read-out: Activity
CAKI-1 = assay: Growth inhibition of human Caki1 cells assessed as cell growth at 10^-5 M incubated for 48 hrs by sulforhodamine B assay relative to control; conditions: CAKI-1, 48 h, read-out: Activity
786-0 = assay: Growth inhibition of human 786-0 cells assessed as cell growth at 10^-5 M incubated for 48 hrs by sulforhodamine B assay relative to control; conditions: 786-0, 48 h, read-out: Activity
SF-539 = assay: Growth inhibition of human SF539 cells assessed as cell growth at 10^-5 M incubated for 48 hrs by sulforhodamine B assay relative to control; conditions: SF-539, 48 h, read-out: Activity
SNB-75 = assay: Growth inhibition of human SNB75 cells assessed as cell growth at 10^-5 M incubated for 48 hrs by sulforhodamine B assay relative to control; conditions: SNB-75, 48 h, read-out: Activity
HL-60(TB) = assay: Growth inhibition of human HL-60(TB) cells assessed as cell growth at 10^-5 M incubated for 48 hrs by sulforhodamine B assay relative to control; conditions: HL-60, 48 h, read-out: Activity
HCT-116 = assay: Growth inhibition of human HCT116 cells assessed as cell growth at 10^-5 M incubated for 48 hrs by sulforhodamine B assay relative to control; conditions: HCT-116, 48 h, read-out: Activity
TK-10 = assay: Growth inhibition of human TK10 cells assessed as cell growth at 10^-5 M incubated for 48 hrs by sulforhodamine B assay relative to control; conditions: TK-10, 48 h, read-out: Activity
MDA-MB-435 = assay: Growth inhibition of human MDA-MB-435 cells assessed as cell growth at 10^-5 M incubated for 48 hrs by sulforhodamine B assay relative to control; conditions: MDA-MB-435, 48 h, read-out: Activity
A498 = assay: Growth inhibition of human A498 cells assessed as cell growth at 10^-5 M incubated for 48 hrs by sulforhodamine B assay relative to control; conditions: A498, 48 h, read-out: Activity
HOP-62 = assay: Growth inhibition of human HOP62 cells assessed as cell growth at 10^-5 M incubated for 48 hrs by sulforhodamine B assay relative to control; conditions: HOP-62, 48 h, read-out: Activity
SF-295 = assay: Growth inhibition of human SF295 cells assessed as cell growth at 10^-5 M incubated for 48 hrs by sulforhodamine B assay relative to control; conditions: SF-295, 48 h, read-out: Activity
MCF7 = assay: Growth inhibition of human MCF7 cells assessed as cell growth at 10^-5 M incubated for 48 hrs by sulforhodamine B assay relative to control; conditions: MCF7, 48 h, read-out: Activity
RXF 393 = assay: Growth inhibition of human RXF393 cells assessed as cell growth at 10^-5 M incubated for 48 hrs by sulforhodamine B assay relative to control; conditions: RXF 393, 48 h, read-out: Activity
SK-MEL-2 = assay: Growth inhibition of human SK-MEL-2 cells assessed as cell growth at 10^-5 M incubated for 48 hrs by sulforhodamine B assay relative to control; conditions: SK-MEL-2, 48 h, read-out: Activity
SR = assay: Growth inhibition of human SR cells assessed as cell growth at 10^-5 M incubated for 48 hrs by sulforhodamine B assay relative to control; conditions: read-out: Activity
HCT-15 = assay: Growth inhibition of human HCT15 cells assessed as cell growth at 10^-5 M incubated for 48 hrs by sulforhodamine B assay relative to control; conditions: HCT-15, 48 h, read-out: Activity
BT-549 = assay: Growth inhibition of human BT549 cells assessed as cell growth at 10^-5 M incubated for 48 hrs by sulforhodamine B assay relative to control; conditions: BT-549, 48 h, read-out: Activity
KM12 = assay: Growth inhibition of human KM12 cells assessed as cell growth at 10^-5 M incubated for 48 hrs by sulforhodamine B assay relative to control; conditions: KM12, 48 h, read-out: Activity
Malme-3M = assay: Growth inhibition of human MALME-3M cells assessed as cell growth at 10^-5 M incubated for 48 hrs by sulforhodamine B assay relative to control; conditions: read-out: Activity
OVCAR-4 = assay: Growth inhibition of human OVCAR4 cells assessed as cell growth at 10^-5 M incubated for 48 hrs by sulforhodamine B assay relative to control; conditions: OVCAR-4, 48 h, read-out: Activity
UACC-62 = assay: Growth inhibition of human UACC62 cells assessed as cell growth at 10^-5 M incubated for 48 hrs by sulforhodamine B assay relative to control; conditions: UACC-62, 48 h, read-out: Activity
U-251 = assay: Growth inhibition of human U251 cells assessed as cell growth at 10^-5 M incubated for 48 hrs by sulforhodamine B assay relative to control; conditions: U-251, 48 h, read-out: Activity
PC-3 = assay: Growth inhibition of human PC3 cells assessed as cell growth at 10^-5 M incubated for 48 hrs by sulforhodamine B assay relative to control; conditions: PC-3, 48 h, read-out: Activity
HCC 2998 = assay: Growth inhibition of human HCC2998 cells assessed as cell growth at 10^-5 M incubated for 48 hrs by sulforhodamine B assay relative to control; conditions: HCC 2998, 48 h, read-out: Activity
UO-31 = assay: Growth inhibition of human UO31 cells assessed as cell growth at 10^-5 M incubated for 48 hrs by sulforhodamine B assay relative to control; conditions: UO-31, 48 h, read-out: Activity
HOP-92 = assay: Growth inhibition of human HOP92 cells assessed as cell growth at 10^-5 M incubated for 48 hrs by sulforhodamine B assay relative to control; conditions: HOP-92, 48 h, read-out: Activity

| SMILES | growth at 10 µM (SK-MEL-28) | growth at 10 µM (Hs-578T) | growth at 10 µM (NCI-H322M) | growth at 10 µM (SF-268) | growth at 10 µM (OVCAR-3) | growth at 10 µM (NCI/ADR-RES) | growth at 10 µM (CAKI-1) | growth at 10 µM (786-0) | growth at 10 µM (SF-539) | growth at 10 µM (SNB-75) | growth at 10 µM (HL-60(TB)) | growth at 10 µM (HCT-116) | growth at 10 µM (TK-10) | growth at 10 µM (MDA-MB-435) | growth at 10 µM (A498) | growth at 10 µM (HOP-62) | growth at 10 µM (SF-295) | growth at 10 µM (MCF7) | growth at 10 µM (RXF 393) | growth at 10 µM (SK-MEL-2) | other results |
| --- | --- | --- | --- | --- | --- | --- | --- | --- | --- | --- | --- | --- | --- | --- | --- | --- | --- | --- | --- | --- | --- |
| Cc1ccc(S(=O)(=O)N2CCc3c([nH]c4ccccc34)C2c2ccc(C=O)cc2)cc1 (stereo unspecified) | 86% | 89.2% | 87.7% | 91.3% | 93.5% | 88.9% | 73.5% | 99.6% | 90.2% | 74% | 105% | 88.3% | 98% | 93.4% | 84.6% | 94.3% | 91.9% | 92.4% | 96.4% | 81.6% | growth at 10 µM (SR): 97.2%; growth at 10 µM (HCT-15): 94.3%; growth at 10 µM (BT-549): 77.1%; growth at 10 µM (KM12): 86.8%; growth at 10 µM (Malme-3M): 89.7%; growth at 10 µM (OVCAR-4): 85.8%; growth at 10 µM (UACC-62): 65%; growth at 10 µM (U-251): 98%; growth at 10 µM (PC-3): 84.2%; growth at 10 µM (HCC 2998): 102%; growth at 10 µM (UO-31): 66.7%; growth at 10 µM (HOP-92): 102% |
| O=Cc1ccc(C2NCCc3c2[nH]c2ccccc32)cc1 (stereo unspecified) | 109% | 90.5% | 97.6% | 101% | 99.7% | 107% | 72.4% | 104% | 103% | 77.8% | 89.4% | 78.4% | 115% | 107% | 86.4% | 86.3% | 101% | 91.9% | 99.6% | 94.8% | growth at 10 µM (SR): 114%; growth at 10 µM (HCT-15): 101%; growth at 10 µM (BT-549): 90.1%; growth at 10 µM (KM12): 107%; growth at 10 µM (Malme-3M): 100%; growth at 10 µM (OVCAR-4): 97.4%; growth at 10 µM (UACC-62): 81.2%; growth at 10 µM (U-251): 95.3%; growth at 10 µM (PC-3): 84.3%; growth at 10 µM (HCC 2998): 104%; growth at 10 µM (UO-31): 61.9%; growth at 10 µM (HOP-92): 87.2% |
| Cc1ccc(S(=O)(=O)N2CCc3c([nH]c4ccccc34)C2c2ccc(-c3nc4ccccc4[nH]3)cc2)cc1 (stereo unspecified) | 86% | 89.2% | 87.7% | 91.3% | 93.5% | 88.9% | 73.5% | 99.6% | 90.2% | 74% | 105% | 88.3% | 98% | 93.4% | 84.6% | 94.3% | 91.9% | 92.4% | 96.4% | 81.6% | growth at 10 µM (SR): 97.2%; growth at 10 µM (HCT-15): 94.3%; growth at 10 µM (BT-549): 77.1%; growth at 10 µM (KM12): 86.8%; growth at 10 µM (Malme-3M): 89.7%; growth at 10 µM (OVCAR-4): 85.8%; growth at 10 µM (UACC-62): 65%; growth at 10 µM (U-251): 98%; growth at 10 µM (PC-3): 84.2%; growth at 10 µM (HCC 2998): 102%; growth at 10 µM (UO-31): 66.7%; growth at 10 µM (HOP-92): 102% |
